Assay results reported in patent US20110105523A1, “BIFEPRUNOX DERIVATIVES” (priority 2008, published 2011).

How the values were obtained:
[1] = target: T1, human dopamine D2L receptor (Homo sapiens, UniProt P14416); experiment: Receptor binding, displacement of [3H]-spiperone on CHO cell membranes; settings: [3H]-spiperone displacement, recombinant human D2L in CHO membranes; s.e.m. in brackets; read-out: pKi value mean ± s.e.m. (converted)
T1 construct: host or cells: CHO-K1
Procedure: The potency of 3′-hydroxy-bifeprunox, 4′-hydroxy-bifeprunox, 3′-sulfate-bifeprunox, 4′-sulfate-bifeprunox and, for comparison, bifeprunox as a ligand on the human dopamine D2L receptor was investigated using a receptor binding assay and determination of functional activity was investigated using a cAMP assay. All compounds were dissolved in DMSO.
The binding of the compounds of the invention to the human D2L receptor was performed using displacement of radioactive-labeled [^3H]-spiperone binding on membranes prepared from Chinese hamster ovary (CHO) cells expressing the recombinant human D2L receptor.
Human dopamine D2L receptors were cloned in CHO-K1 cells and obtained from Dr. D. Grandy, Vollum Institute, Portland, Oreg., USA.
The binding assay has been carried out using [^3H]-spiperone as ligand (see Eur. J. Pharmacol. 46:377-381, 1977). The labeled compound was incubated with or without the test compound, with a preparation from cloned CHO cells carrying the human dopamine D2L receptor. Separation of bound and free ligand was performed by filtration over glassfiber-filters. After two washings, the bound-fraction remained on the filter. Radioactivity trapped on the filter was measured by scintillation counting. Results are expressed as pKi (negative logarithm of the inhibition constant Ki which is calculated form the IC50).

[2] = target: T1, human dopamine D2L receptor; experiment: Adenylate cyclase activity (cAMP assay), inhibition of forskolin-stimulated cAMP accumulation in CHO cells; assay type: cell-based; settings: for Conversion of cAMP, % of control (mean (±s.e.m.)): control = forskolin-stimulated cAMP accumulation; for EC50: inhibition of forskolin-induced cAMP accumulation, D2L agonism, read-out: pEC50 mean (±s.e.m.) (converted)
Procedure: All compounds were dissolved in DMSO.
For incubation with test compounds (concentrations 10^−6-10^−10M), confluent cultures grown in 24 wells plates were used. Each condition or substance was routinely tested in quadruplicate. Cells were loaded with 1 μCi [^3H]-adenine in 0.5 ml medium/well. After 2 hours, cultures were washed with 0.5 ml PBS containing […] IBMX and forskolin with or without test compound. After aspiration the reaction was stopped with 1 ml trichloroacetic acid 5% (w/v). […] The extract was passed over Dowex (50W-4 200-400 mesh) and aluminiumoxide columns, eluted with water and 0.1M imidazole (pH=7.5). Eluates were mixed with 7 ml of Insta-gel and radioactivity was counted with a scintillation counter. The conversion of the cAMP fraction as compared to combined radioactivity in both cAMP and ATP fractions, and basal activity was subtracted to correct for spontaneous activity.
Dopamine D2L: reference compound: quinpirole; incubation time: 20 min.
Subsequently, the mean of four observations was taken as an estimate for drug-induced, receptor-mediated effects at specified messenger accumulation, expressed as percentage of control values (forskolin-stimulated cAMP accumulation).
By using the non-linear curve-fitting program XL-FIT mean values were plotted against drug concentration (in molar) and sigmoid curve (four parameter logistic curve) was constructed. The maximal forskolin-induced stimulated conversion was taken as maximum value and the maximal inhibition as minimum and these values were fixed during the fitting process.

T1 sequence (P14416 whole entry): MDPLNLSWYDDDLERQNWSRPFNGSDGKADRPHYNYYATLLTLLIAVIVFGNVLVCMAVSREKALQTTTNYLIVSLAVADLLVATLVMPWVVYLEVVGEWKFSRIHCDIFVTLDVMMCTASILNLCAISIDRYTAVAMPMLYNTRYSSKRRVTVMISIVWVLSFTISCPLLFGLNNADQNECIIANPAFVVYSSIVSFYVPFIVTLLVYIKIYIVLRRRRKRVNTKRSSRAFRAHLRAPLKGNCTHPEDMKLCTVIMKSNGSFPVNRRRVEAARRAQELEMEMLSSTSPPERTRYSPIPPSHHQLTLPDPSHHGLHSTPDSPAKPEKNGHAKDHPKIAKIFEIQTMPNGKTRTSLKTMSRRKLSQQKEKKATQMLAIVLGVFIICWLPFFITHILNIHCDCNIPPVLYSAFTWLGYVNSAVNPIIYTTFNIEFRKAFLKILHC

Row | Ki [1] [nM] | PS: mean % stimulation (agonism) at 1 μM [2] [%] | Conversion of cAMP, % of control (mean (±s.e.m.)) ([2]; 10^−6M test compound) | Conversion of cAMP, % of control (mean (±s.e.m.)) ([2]; 10^−7M test compound) | Conversion of cAMP, % of control (mean (±s.e.m.)) ([2]; 10^−8M test compound) | Conversion of cAMP, % of control (mean (±s.e.m.)) ([2]; 10^−9M test compound) | Conversion of cAMP, % of control (mean (±s.e.m.)) ([2]; 10^−10M test compound) | EC50 [2] [nM] | Compound
1 | 12.6 | 51 | 49 (6) % of control | 66 (12) % of control | 79 (6) % of control | 93 (9) % of control | 94 (5) % of control | 12.6 | O=c1[nH]c2cccc(N3CCN(Cc4cccc(-c5cccc(OS(=O)(=O)O)c5)c4)CC3)c2o1 [3′-sulfate, 7-[4-(3′-sulfooxy[1,1′-biphenyl]-3-ylmethyl)-1-piperazinyl]-2(3H)-benzoxazolone]
2 | 6.31 | 49 | 51 (16) % of control | 63 (14) % of control | 65 (13) % of control | 72 (13) % of control | 85 (9) % of control | 0.631 | O=c1[nH]c2cccc(N3CCN(Cc4cccc(-c5ccc(OS(=O)(=O)O)cc5)c4)CC3)c2o1 [4′-sulfate, 7-[4-(4′-sulfooxy[1,1′-biphenyl]-3-ylmethyl)-1-piperazinyl]-2(3H)-benzoxazolone]

Continued, molecule first:

Row | Compound | Ki [1] [nM] | PS: mean % stimulation (agonism) at 1 μM [2] [%] | Conversion of cAMP, % of control (mean (±s.e.m.)) ([2]; 10^−6M test compound) | Conversion of cAMP, % of control (mean (±s.e.m.)) ([2]; 10^−7M test compound) | Conversion of cAMP, % of control (mean (±s.e.m.)) ([2]; 10^−8M test compound) | Conversion of cAMP, % of control (mean (±s.e.m.)) ([2]; 10^−9M test compound) | Conversion of cAMP, % of control (mean (±s.e.m.)) ([2]; 10^−10M test compound) | EC50 [2] [nM]
3 | O=c1[nH]c2cccc(N3CCN(Cc4cccc(-c5cccc(O)c5)c4)CC3)c2o1 [3′-OH, 7-[4-(3′-hydroxy[1,1′-biphenyl]-3-ylmethyl)-1-piperazinyl]-2(3H)-benzoxazolone] | 12.6 | 49 | 51 (10) % of control | 56 (8) % of control | 63 (7) % of control | 70 (6) % of control | 84 (4) % of control | 0.794
4 | O=c1[nH]c2cccc(N3CCN(Cc4cccc(-c5ccc(O)cc5)c4)CC3)c2o1 [4′-OH, 7-[4-(4′-hydroxy[1,1′-biphenyl]-3-ylmethyl)-1-piperazinyl]-2(3H)-benzoxazolone] | 12.6 | 55 | 45 (4) % of control | 50 (2) % of control | 58 (4) % of control | 59 (3) % of control | 90 (9) % of control | 0.2
5 | O=c1[nH]c2cccc(N3CCN(Cc4cccc(-c5ccccc5)c4)CC3)c2o1 [Bifeprunox, 7-[4-([1,1′-biphenyl]-3-ylmethyl1)-1-piperazinyl]-2(3H)-benzoxazolone monomethanesulphonate] | 39.8 | 31 | 69 (10) % of control | 69 (11) % of control | 84 (12) % of control | 94 (13) % of control | 95 (15) % of control | 6.31
